Data: US12472247B2, “Immune adjuvant comprising hepatitis B virus-derived polypeptide” (priority 2020, dated 2025)
Entries after “also recorded” stand apart in the source; their conditions may differ.

Columns and labels:
dendritic cells = experiment: migration of Poly6-treated dendritic cells to lymph nodes after footpad injection; type: in vivo, mouse; conditions: for ability of activated dendritic cells to migrate to the lymph nodes: 0.1 μM of Poly6, 0.1 μg/ml of LPS, vs DCs without any treatment
Method: Dendritic cells activated by treatment with Poly6 peptides for 24 hours were fluorescently labeled (CFSE) and injected into C57BL/6 mice by footpad injection, and after 3 days, the inguinal lymph nodes of the mice were extracted to confirm numbers of labeled dendritic cells.

[1] = test system: peripheral blood mononuclear cells (PBMC); experiment: IFN-γ-expressing T cells in PBMC treated with Poly6; type: cell-based; conditions: human PBMC, IL-2 three days, Poly6 at various concentrations
[2] = test system: dendritic cells differentiated from mouse bone marrow cells; experiment: inflammatory cytokines secreted by dendritic cells (ELISA); type: cell-based; conditions: Poly6 0.1, 0.5, 1 μM, 24 hours
Method: (§1) The femur and tibia of C57BL/6 mice were isolated, and bone marrow cells therein were isolated. The isolated bone marrow cells were cultured in IMDM medium (supplemented with IL-4 and GM-CSF) to induce differentiation of dendritic cells. After culturing for 6 days, dendritic cells having 80% or more of CD11c markers were used in the experiment (FIG. 3).
When dendritic cells were treated with Poly6 peptides at concentrations of 0.1 μM, 0.5 μM, and 1 μM for 24 hours, inflammatory cytokines TNF-α, IL-6, and IL-12p40 secreted by dendritic cells were confirmed by ELISA.

HBV = experiment: anti-HBV effect in HBV-carrier mouse models (hydrodynamic injection); type: in vivo, hepatitis B virus
[3] = test system: dendritic cells differentiated from mouse bone marrow cells; experiment: maturation markers of dendritic cells by FACS; type: cell-based; conditions: Poly6 0.1, 0.5, 1 μM, 24 hours
Method: as §1
Dendritic cells differentiated from mouse bone marrow cells were treated with Poly6 peptides at each concentration of 0.1 μM, 0.5 μM, and 1 μM and cultured for 24 hours, and then expression of representative maturation markers CD80, CD86, and MHC I, and a migration marker CCR7 of dendritic cells were confirmed by fluorescence activated cell sorting (FACS).

| Substance | ability of activated dendritic cells to migrate to the lymph nodes (dendritic cells) | numbers of dendritic cells found in the lymph nodes (dendritic cells; DCs treated with 0.1 μM Poly6, footpad injection, 3 days, vs untreated DCs) | IFN-γ-expressing T cells [1] | amounts of TNF-α, IL-6, and IL-12p40 secreted by dendritic cells [2] | anti-HBV effects (HBV) | anti-HIV-1 effects (HIV-1) | expression level of the maturation markers of dendritic cells (CD80, CD86, MHC I, CCR7) [3] |
| --- | --- | --- | --- | --- | --- | --- | --- |
| GRLVFQ (poly6 peptide) | have an ability to migrate to the lymph nodes on their own | increased statistically significantly | significantly increased IFN-γ-expressing T cells compared to a group treated with PBS; also recorded: concentration-dependent trend was also observed | amounts of TNF-α, IL-6, and IL-12p40 secreted by dendritic cells increased | anti-HBV effects in HBV-carrier mouse models were also observed | showed anti-HIV-1 effects | increased as the concentration of treated Poly6 increased |
| lipopolysaccharide [LPS, reference compound] | have an ability to migrate to the lymph nodes on their own |  |  |  |  |  |  |
